Target: T1, arginase activity in intact BMM-M2 cells (Mus musculus, UniProt Q61176)
T1 construct: endogenous in cells; host or cells: bone-marrow derived macrophages from male C57BL/6 mice, polarised to M2 with IL-4
T1 sequence (Q61176 1-323): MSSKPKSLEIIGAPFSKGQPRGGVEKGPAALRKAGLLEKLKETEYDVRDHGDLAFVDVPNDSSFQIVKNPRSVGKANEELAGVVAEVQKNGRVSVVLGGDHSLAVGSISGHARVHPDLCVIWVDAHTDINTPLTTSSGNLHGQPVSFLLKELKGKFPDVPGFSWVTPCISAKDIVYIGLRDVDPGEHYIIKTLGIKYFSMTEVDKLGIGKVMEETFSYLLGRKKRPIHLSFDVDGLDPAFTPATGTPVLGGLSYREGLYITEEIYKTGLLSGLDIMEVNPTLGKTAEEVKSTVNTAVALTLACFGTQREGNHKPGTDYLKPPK
Assay: Cell-based arginase assay: urea production by cultured BMM-M2 cells
Conditions: 10 μM test compound, 24 h
Procedure: Murine bone-marrow derived macrophages (BMM) represent a convenient in vitro model that enables differentiation of these cells towards M1 or M2 macrophages. Briefly, male C57BL/6 mice 7-8 weeks old were euthanized by carbon dioxide asphyxiation. Femur and tibiae bones were removed under aseptic conditions and collected in a plate containing sterile ice-cold PBS 1×. After sterilization of bones in 70% ethanol during 1 min, bones were placed into a clean Petri dish containing fresh sterile ice-cold PBS 1×. The ends of each bone were cut and the marrow cavity was flushed using forceps and syringes filled with pre-warmed complete α-MEM growing medium (α-MEM without red phenol (Life Technologies, Cat. No. #41061-029) supplemented with 10% FBS, penicillin and streptomycin). Bone marrow (BM) cells were harvested in a 15 ml clean tube and centrifuged at 400 g for 8 min at RT. Supernatant was discarded and BM pellet was re-suspended in 5 ml Ammonium-Chloride-Potassium (ACK) buffer for 5 minutes at RT to lysis RBC. BM cell suspension was centrifuged at 400 g for 8 min at RT. Supernatant was discarded and BM cell pellet was re-suspended in complete α-MEM growing medium and passed through a 70 μm cell restrainer to eliminate solid contaminates and cellular aggregates. BM cells were seeded in 8 ml of complete α-MEM growing medium supplemented with 100 ng/ml recombinant mouse M-CSF (R&D Systems, Cat. No. #416-ML-050) in 100-mm dishes. BM cells were cultured overnight to get rid of contaminating stromal cells in a humidified incubator with 5% CO2 at 37° C. At the following day, non-adherent cells were collected in a clean 15-ml tube and centrifuged at 400 g for 8 min at RT. Cell pellet was re-suspended in complete α-MEM growing medium and counted using a hemocytometer Neubauer's chamber. Hematopoietic precursor cells were differentiated into BMM in presence of complete α-MEM growing medium supplemented 50 ng/ml M-CSF for 3 days. Finally to polarize BMM towards M2 phenotype, cells were incubated in presence 20 ng/ml of recombinant mouse IL-4 (R&D Systems, Cat. No. #404-ML-010) added to fresh complete α-MEM growing medium supplemented 50 ng/ml M-CSF for 24 h.
At the day of the experiment, BMM-M2 were treated for 24 h with vehicle (DMSO) or compounds of the invention at 1 and 10 μM prepared in fresh complete α-MEM growing medium supplemented 50 ng/ml M-CSF, 20 ng/ml IL-4 and 10 mM L-arginine (Cat. No. #A5006, Sigma Aldrich). At the next day, 70 μl aliquots of each treated culture media (supernatants) were transferred into a clear 96-well plate. Measurements of urea produced by BMM-M2 were performed using the adapted protocol detailed in Example B1. Wells without BMM-M2 containing only treatment media (vehicle) were used to determine the zero cell-derived urea production (blank). All treatments were carried out in triplicates.
The inhibition of urea production was calculated subtracting the absorbance from the blank to the absorbance from all treatments and it was expressed as the percentage of the absorbance from the reaction containing the test article treatment with respect to the absorbance from vehicle treatment (maximum of urea production).

| SMILES | Inh. urea production @10 μM (%) |
| --- | --- |
| CC(c1ccccc1)N1CCC(C(N)(CCCCB(O)O)C(=O)O)CC1 (stereo not shown) [Compound 9, 2-amino-6-borono-2-(1-(1-phenylethyl)piperidin-4-yl)hexanoic acid] | ++ (25% < % inhibition < 15% at 10 μM test compound) |
| CC1(C)OB(CCCCC(N)(C(=O)O)C2CCN(C3CCCc4ccccc43)CC2)OC1(C)C (stereo not shown) [Compound 77, 2-amino-2-(1-(1,2,3,4-tetrahydronaphthalen-1-yl)piperidin-4-yl)-6-(4,4,5,5-tetramethyl-1,3,2-dioxaborolan-2-yl)hexanoic acid] | ++ (25% < % inhibition < 15% at 10 μM test compound) |

Same assay, conditions: 10 μM test compound, 24 h, 10 µM

| Inh. urea production @10 μM (%) | SMILES |
| --- | --- |
| + (% inhibition < 15 at 10 μM) | NC(CCCCB(O)O)(C(=O)O)C1CCN(C2CCCc3ccccc32)CC1 (single isomer, unassigned) [Compound 6, 2-amino-6-borono-2-(1-(1,2,3,4-tetrahydronaphthalen-1-yl)piperidin-4-yl)hexanoic acid] |
| + (% inhibition < 15 at 10 μM) | CC(c1ccccc1)N1CCC(C(N)(CCCCB(O)O)C(=O)O)CC1 (single isomer, unassigned) [Compound 11, 2-amino-6-borono-2-(1-(1-phenylethyl)piperidin-4-yl)hexanoic acid] |

| SMILES | Inh. urea production @10 μM (%) |
| --- | --- |
| NC(CCCCB(O)O)(C(=O)O)C1CCN(C2CCc3ccccc32)CC1 (single isomer, unassigned) [Compound 2, 2-amino-6-borono-2-(1-(2,3-dihydro-1H-inden-1-yl)piperidin-4-yl)hexanoic acid] | +++ (% inhibition > 25 at 10 μM test compound) |

Same assay, conditions: 10 μM test compound, 24 h, read-out: Inh. urea production @10 μM (%)

| SMILES | inhibition at 10 µM |
| --- | --- |
| CC(c1ccccc1)N1CCC(C(N)(CCCCB(O)O)C(=O)O)CC1 (single isomer, unassigned) [Compound 10, 2-amino-6-borono-2-(1-(1-phenylethyl)piperidin-4-yl)hexanoic acid] | > 25% |
| NC(CCCCB(O)O)(C(=O)O)C1CCN(C2CCc3cc(Cl)ccc32)CC1 (single isomer, unassigned) [Compound 14, 2-amino-6-borono-2-[1-(5-chloroindan-1-yl)-4-piperidyl]hexanoic acid] | > 25% |
| NC(CCCCB(O)O)(C(=O)O)C1CCN(C2CCCc3cc(Cl)ccc32)CC1 (single isomer, unassigned) [Compound 17, 2-amino-6-borono-2-(1-(6-chloro-1,2,3,4-tetrahydronaphthalen-1-yl)piperidin-4-yl)hexanoic acid] | > 25% |
| CNC(CCCCB(O)O)(C(=O)O)C1CCN(C2CCCc3ccccc32)CC1 (single isomer, unassigned) [Compound 79, 6-borono-2-(methylamino)-2-(1-(1,2,3,4-tetrahydronaphthalen-1-yl)piperidin-4-yl)hexanoic acid] | > 25% |
| NC(CCCCB(O)O)(C(=O)O)C1CCN(C2CCCc3ccc(F)cc32)CC1 (single isomer, unassigned) [Compound 83, 2-amino-6-borono-2-(1-(7-fluoro-1,2,3,4-tetrahydronaphthalen-1-yl)piperidin-4-yl)hexanoic acid] | > 25% |
| NC(CCCCB(O)O)(C(=O)O)C1CCN(C2CCc3cc(C(F)(F)F)ccc32)CC1 (single isomer, unassigned) [Compound 85, 2-amino-6-borono-2-[1-[5-(trifluoromethyl)indan-1-yl]-4-piperidyl]hexanoic acid] | > 25% |

More lines, now with the values ahead:

| inhibition at 10 µM | SMILES |
| --- | --- |
| < 15% | NC(CCCCB(O)O)(C(=O)O)C1CCN(C2CCc3ccccc32)CC1 (single isomer, unassigned) [Compound 3, 2-amino-6-borono-2-(1-(2,3-dihydro-1H-inden-1-yl)piperidin-4-yl)hexanoic acid] |
| > 25% | NC(CCCCB(O)O)(C(=O)O)C1CCN(C2CCCc3ccccc32)CC1 (single isomer, unassigned) [Compound 4, 2-amino-6-borono-2-(1-(1,2,3,4-tetrahydronaphthalen-1-yl)piperidin-4-yl)hexanoic acid] |
| > 25% | NC(CCCCB(O)O)(C(=O)O)C1CCN(C2CCCc3ccccc32)CC1 (single isomer, unassigned) [Compound 5, 2-amino-6-borono-2-(1-(1,2,3,4-tetrahydronaphthalen-1-yl)piperidin-4-yl)hexanoic acid] |
| > 25% | NC(CCCCB(O)O)(C(=O)O)C1CCN(C2CCCCc3ccccc32)CC1 (single isomer, unassigned) [Compound 84, 2-amino-6-borono-2-(1-(6,7,8,9-tetrahydro-5H-benzo[7]annulen-5-yl)piperidin-4-yl)hexanoic acid] |
| > 25% | NC(CCCCB(O)O)(C(=O)O)C1CCN(C2CCc3ccccc32)CC1 (stereo not shown) [Compound 1, 2-amino-6-borono-2-(1-(2,3-dihydro-1H-inden-1-yl)piperidin-4-yl)hexanoic acid] |
